Data reported in US20230150974A1 (Foghorn Therapeutics Inc., priority 2020, published 2023).
Where a name gives a salt, the structure may show the parent alone.

Legend:
HiBiT-BRM = molecular target: T1, HiBiT-BRM (Homo sapiens, UniProt P51531); assay: HiBiT-BRM cell-based degradation assay (Nano-Glo HiBiT Lytic Detection); details: HeLa cells expressing HiBiT-BRM, 24 h; for DC50: read-out: BRM HiBit Degradation IC50
T1 construct: expressed in transfected cells
How it was run: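 HeLa cells stably expressing HiBiT-tagged BRM were treated for 24 h, then lysed with LgBiT-containing Nano-Glo reagent and luminescence read. % degradation scaled between DMSO (high control) and 2 μM reference BRM/BRG1 degrader (low control).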

HiBit-BRG1 = molecular target: T2, HiBit-BRG1 (Homo sapiens, UniProt P51532); assay: HiBit-BRG1 cell-based degradation assay (Nano-Glo HiBiT Lytic Detection); details: HeLa cells expressing HiBit-BRG1 and LgBit, 24 h; for DC50: read-out: BRG1 HiBit Degradation IC50; for Dmax: read-out: BRG1 HiBit Degradation Maximum (%)
T2 construct: expressed in transfected cells
T2 sequence (P51532 whole entry): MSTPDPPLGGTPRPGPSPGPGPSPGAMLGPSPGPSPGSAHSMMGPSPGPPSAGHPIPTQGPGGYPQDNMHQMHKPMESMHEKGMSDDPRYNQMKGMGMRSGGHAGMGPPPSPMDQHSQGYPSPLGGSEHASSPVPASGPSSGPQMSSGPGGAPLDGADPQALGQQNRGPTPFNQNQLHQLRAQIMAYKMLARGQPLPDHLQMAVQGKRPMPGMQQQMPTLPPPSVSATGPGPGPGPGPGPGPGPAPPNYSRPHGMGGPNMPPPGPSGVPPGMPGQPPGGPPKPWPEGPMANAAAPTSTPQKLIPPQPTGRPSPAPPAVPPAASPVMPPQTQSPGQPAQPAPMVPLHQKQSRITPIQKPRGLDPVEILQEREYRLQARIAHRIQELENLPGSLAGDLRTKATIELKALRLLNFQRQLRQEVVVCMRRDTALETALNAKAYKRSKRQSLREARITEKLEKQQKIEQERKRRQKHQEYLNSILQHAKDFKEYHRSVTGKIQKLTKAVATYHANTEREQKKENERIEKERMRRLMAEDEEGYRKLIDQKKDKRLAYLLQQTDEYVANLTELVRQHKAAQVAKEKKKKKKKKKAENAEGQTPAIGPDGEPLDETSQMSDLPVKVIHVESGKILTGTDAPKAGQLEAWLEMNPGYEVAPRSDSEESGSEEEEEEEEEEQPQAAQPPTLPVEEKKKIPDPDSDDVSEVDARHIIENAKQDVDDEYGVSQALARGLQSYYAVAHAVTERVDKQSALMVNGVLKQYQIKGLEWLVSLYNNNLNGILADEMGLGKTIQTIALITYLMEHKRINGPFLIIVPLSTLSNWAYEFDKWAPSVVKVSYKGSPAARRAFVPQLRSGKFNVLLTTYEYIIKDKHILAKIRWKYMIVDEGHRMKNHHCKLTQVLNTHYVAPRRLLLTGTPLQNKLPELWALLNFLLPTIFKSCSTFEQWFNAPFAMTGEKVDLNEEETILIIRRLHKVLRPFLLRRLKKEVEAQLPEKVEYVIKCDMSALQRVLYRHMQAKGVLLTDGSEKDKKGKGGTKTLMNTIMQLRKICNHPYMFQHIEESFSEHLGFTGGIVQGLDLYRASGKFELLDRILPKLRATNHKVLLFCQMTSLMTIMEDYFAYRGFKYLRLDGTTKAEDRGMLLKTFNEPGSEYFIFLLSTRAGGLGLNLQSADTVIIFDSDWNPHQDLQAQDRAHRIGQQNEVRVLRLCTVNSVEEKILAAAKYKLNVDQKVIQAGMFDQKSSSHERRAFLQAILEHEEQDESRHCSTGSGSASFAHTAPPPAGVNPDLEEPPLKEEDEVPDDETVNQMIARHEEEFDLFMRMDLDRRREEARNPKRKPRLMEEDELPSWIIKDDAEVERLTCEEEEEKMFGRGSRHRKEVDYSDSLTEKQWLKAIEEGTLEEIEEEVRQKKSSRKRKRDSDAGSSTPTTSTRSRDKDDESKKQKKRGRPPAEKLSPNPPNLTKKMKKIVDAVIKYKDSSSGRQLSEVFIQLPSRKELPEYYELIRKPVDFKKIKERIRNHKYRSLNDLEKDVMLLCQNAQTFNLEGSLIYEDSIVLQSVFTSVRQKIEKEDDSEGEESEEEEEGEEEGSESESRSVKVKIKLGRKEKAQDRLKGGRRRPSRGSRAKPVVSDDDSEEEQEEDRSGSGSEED
How it was run: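 HeLa cells stably expressing HiBiT-BRG1 plus LgBit, 5000/well, treated 24 h, then lysed with Nano-Glo HiBiT lytic reagent and luminescence read. % degradation normalised between DMSO (high control) and 2 μM reference BRM/BRG1 degrader (low control).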

T1 sequence (P51531 whole entry): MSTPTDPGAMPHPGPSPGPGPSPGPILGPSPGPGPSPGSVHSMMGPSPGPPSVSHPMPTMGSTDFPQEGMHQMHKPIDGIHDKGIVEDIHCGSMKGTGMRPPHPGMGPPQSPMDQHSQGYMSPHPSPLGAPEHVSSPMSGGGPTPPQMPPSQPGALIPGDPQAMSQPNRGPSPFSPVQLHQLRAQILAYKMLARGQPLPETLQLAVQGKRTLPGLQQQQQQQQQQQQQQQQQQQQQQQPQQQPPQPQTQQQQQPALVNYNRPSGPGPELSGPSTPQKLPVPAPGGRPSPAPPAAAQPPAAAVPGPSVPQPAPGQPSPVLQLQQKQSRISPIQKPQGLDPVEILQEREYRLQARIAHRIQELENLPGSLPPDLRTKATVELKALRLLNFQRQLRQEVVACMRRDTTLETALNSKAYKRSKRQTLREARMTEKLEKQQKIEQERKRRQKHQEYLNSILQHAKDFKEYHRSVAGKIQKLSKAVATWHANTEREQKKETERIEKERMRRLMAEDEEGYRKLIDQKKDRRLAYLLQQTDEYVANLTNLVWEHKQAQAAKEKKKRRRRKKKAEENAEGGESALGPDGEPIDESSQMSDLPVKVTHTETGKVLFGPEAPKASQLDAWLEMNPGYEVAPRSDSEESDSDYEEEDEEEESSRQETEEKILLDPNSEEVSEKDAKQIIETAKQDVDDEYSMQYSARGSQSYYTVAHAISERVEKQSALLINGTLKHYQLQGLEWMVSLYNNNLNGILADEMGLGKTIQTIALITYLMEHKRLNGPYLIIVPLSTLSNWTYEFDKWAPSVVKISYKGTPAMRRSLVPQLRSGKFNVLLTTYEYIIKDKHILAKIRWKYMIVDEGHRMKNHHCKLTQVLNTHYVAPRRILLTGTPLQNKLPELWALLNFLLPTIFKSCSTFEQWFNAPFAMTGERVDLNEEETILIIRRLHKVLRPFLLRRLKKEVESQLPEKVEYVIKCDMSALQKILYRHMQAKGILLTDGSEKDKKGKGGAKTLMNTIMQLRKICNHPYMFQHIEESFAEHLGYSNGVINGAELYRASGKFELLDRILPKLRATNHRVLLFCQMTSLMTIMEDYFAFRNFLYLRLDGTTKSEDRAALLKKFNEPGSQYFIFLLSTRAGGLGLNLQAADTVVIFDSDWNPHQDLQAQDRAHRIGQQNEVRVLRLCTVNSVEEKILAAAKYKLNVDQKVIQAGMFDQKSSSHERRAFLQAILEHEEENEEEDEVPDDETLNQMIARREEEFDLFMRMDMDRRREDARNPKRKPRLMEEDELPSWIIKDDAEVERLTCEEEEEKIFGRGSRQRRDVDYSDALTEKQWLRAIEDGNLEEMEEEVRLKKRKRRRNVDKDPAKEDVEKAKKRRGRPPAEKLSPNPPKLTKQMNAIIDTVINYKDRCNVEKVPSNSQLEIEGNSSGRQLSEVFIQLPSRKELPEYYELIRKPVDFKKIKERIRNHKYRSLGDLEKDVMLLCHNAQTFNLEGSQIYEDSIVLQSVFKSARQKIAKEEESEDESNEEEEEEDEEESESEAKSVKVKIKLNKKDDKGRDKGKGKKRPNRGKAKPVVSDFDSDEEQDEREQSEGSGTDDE

CN(CCNC(=O)CN1CCN(c2cc(-c3ccccc3O)nnc2N)CC1)CCNc1cccc2c1C(=O)N(C1CCC(=O)NC1=O)C2=O (centres unmarked) [Compound 96, 2-(4-(3-amino-6-(2-hydroxyphenyl)pyridazin-4-yl)piperazin-1-yl)-N-(2-((2-((2-(2,6-dioxopiperidin-3-yl)-1,3-dioxoisoindolin-4-yl)amino)ethyl)(methyl)amino)ethyl)acetamide] was tested, and the “BRM HiBit Degradation Maximum (%)” value (HiBiT-BRM) was “C (“C” indicates maximum degradation <50%)”, the DC50 (HiBiT-BRM) was greater than 1000 nM and the DC50 (HiBit-BRG1) was greater than 1000 nM. For the same compound, the Dmax (HiBit-BRG1) was less than 50%.
Nc1nnc(-c2ccccc2O)cc1N1CCN(CCNC(=O)CCCCCCCCNc2cccc3c2C(=O)N(C2CCC(=O)NC2=O)C3=O)CC1 (centres unmarked) [Compound 97, N-(2-[4-[3-amino-6-(2-hydroxyphenyl)pyridazin-4-yl]piperazin-1-yl]ethyl)-9-[[2-(2,6-dioxopiperidin-3-yl)-1,3-dioxoisoindol-4-yl]amino]nonanamide] was tested, and the “BRM HiBit Degradation Maximum (%)” value (HiBiT-BRM) was “C (“C” indicates maximum degradation <50%)”, the DC50 (HiBiT-BRM) was greater than 1000 nM and the DC50 (HiBit-BRG1) was greater than 1000 nM. For the same compound, the Dmax (HiBit-BRG1) was less than 50%.
With Nc1nnc(-c2ccccc2O)cc1N1CCN(CCNC(=O)CCCCCCCCCNc2cccc3c2C(=O)N(C2CCC(=O)NC2=O)C3=O)CC1 (centres unmarked) [Compound 98, N-(2-[4-[3-amino-6-(2-hydroxyphenyl)pyridazin-4-yl]piperazin-1-yl]ethyl)-10-[[2-(2,6-dioxopiperidin-3-yl)-1,3-dioxo-2,3-dihydro-1H-isoindol-4-yl]amino]decanamide] the “BRM HiBit Degradation Maximum (%)” value (HiBiT-BRM) was “C (“C” indicates maximum degradation <50%)”, the DC50 (HiBiT-BRM) was greater than 1000 nM and the DC50 (HiBit-BRG1) was greater than 1000 nM. The Dmax (HiBit-BRG1) was less than 50%.
With Nc1nnc(-c2ccccc2O)cc1N1CCN(CCNC(=O)CCCCCCCCCCNc2ccc3c(c2)C(=O)N(C2CCC(=O)NC2=O)C3=O)CC1 (centres unmarked) [Compound 99, N-(2-[4-[3-amino-6-(2-hydroxyphenyl)pyridazin-4-yl]piperazin-1-yl]ethyl)-11-[[2-(2,6-dioxopiperidin-3-yl)-1,3-dioxo-2,3-dihydro-1H-isoindol-5-yl]amino]undecanamide] the “BRM HiBit Degradation Maximum (%)” value (HiBiT-BRM) was “C (“C” indicates maximum degradation <50%)”, the DC50 (HiBiT-BRM) was greater than 1000 nM and the DC50 (HiBit-BRG1) was greater than 1000 nM. For the same compound, the Dmax (HiBit-BRG1) was less than 50%.
Cc1ncsc1-c1ccc(CNC(=O)[C@@H]2C[C@@H](O)CN2C(=O)[C@@H](NC(=O)COCCOCCNC(=O)CN2CCN(c3cc(-c4ccccc4O)nnc3N)CC2)C(C)(C)C)cc1 [Compound 100, (2S,4R)-1-[(2S)-2-(2-[2-[2-(2-[4-[3-amino-6-(2-hydroxyphenyl)pyridazin-4-yl]piperazin-1-yl]acetamido)ethoxy]ethoxy]acetamido)-3,3-dimethylbutanoyl]-4-hydroxy-N-[[4-(4-methyl-1,3-thiazol-5-yl)phenyl]methyl]pyrrolidine-2-carboxamide] was tested, and the “BRM HiBit Degradation Maximum (%)” value (HiBiT-BRM) was “C (“C” indicates maximum degradation <50%)”, the DC50 (HiBiT-BRM) was greater than 1000 nM and the DC50 (HiBit-BRG1) was greater than 1000 nM. The Dmax (HiBit-BRG1) was less than 50%.
In the case of Cc1ncsc1-c1ccc(CNC(=O)[C@@H]2C[C@@H](O)CN2C(=O)[C@@H](NC(=O)CCCCCCCCCNC(=O)CN2CCN(c3cc(-c4ccccc4O)nnc3N)CC2)C(C)(C)C)cc1 [Compound 102, (2S,4R)-1-[(2S)-2-[10-(2-[4-[3-amino-6-(2-hydroxyphenyl)pyridazin-4-yl]piperazin-1-yl]acetamido)decanamido]-3,3-dimethylbutanoyl]-4-hydroxy-N-[[4-(4-methyl-1,3-thiazol-5-yl)phenyl]methyl]pyrrolidine-2-carboxamide], the “BRM HiBit Degradation Maximum (%)” value (HiBiT-BRM) is reported as “A (“A” indicates maximum degradation ≥75%)”, the DC50 (HiBiT-BRM) is reported as greater than 100 nM and the DC50 (HiBit-BRG1) is reported as greater than 1000 nM. It also gave a Dmax (HiBit-BRG1) of less than 50%.
For Nc1nnc(-c2ccccc2O)cc1N1CCN(CC(=O)NCCCCNc2ccc3c(c2)C(=O)N(C2CCC(=O)NC2=O)C3=O)CC1 (centres unmarked) [Compound 103, 2-[4-[3-amino-6-(2-hydroxyphenyl)pyridazin-4-yl]piperazin-1-yl]-N-(4-[[2-(2,6-dioxopiperidin-3-yl)-1,3-dioxo-2,3-dihydro-1H-isoindol-5-yl]amino]butyl)acetamide], the “BRM HiBit Degradation Maximum (%)” value (HiBiT-BRM) was “C (“C” indicates maximum degradation <50%)”, the DC50 (HiBiT-BRM) was greater than 1000 nM and the DC50 (HiBit-BRG1) was greater than 1000 nM. The Dmax (HiBit-BRG1) was less than 50%.
In the case of CN(CCNC(=O)COc1cccc2c1C(=O)N(C1CCC(=O)NC1=O)C2=O)CCNC(=O)CN1CCN(c2cc(-c3ccccc3O)nnc2N)CC1 (centres unmarked) [Compound 104, N-(2-[[2-(2-[4-[3-amino-6-(2-hydroxyphenyl)pyridazin-4-yl]piperazin-1-yl]acetamido)ethyl](methyl)amino]ethyl)-2-[[2-(2,6-dioxopiperidin-3-yl)-1,3-dioxo-2,3-dihydro-1H-isoindol-4-yl]oxy]acetamide], the “BRM HiBit Degradation Maximum (%)” value (HiBiT-BRM) is reported as “C (“C” indicates maximum degradation <50%)”, the DC50 (HiBiT-BRM) is reported as greater than 1000 nM and the DC50 (HiBit-BRG1) is reported as greater than 1000 nM. The Dmax (HiBit-BRG1) was less than 50%.
With Cc1ncsc1-c1ccc(CNC(=O)[C@@H]2C[C@H](O)CN2C(=O)[C@@H](NC(=O)CCCCCCCCCNC(=O)c2ccc(CCOc3cc(-c4ccccc4O)nnc3N)cc2)C(C)(C)C)cc1 [Compound 105, (2S,4S)-1-((S)-2-(10-(4-(2-((3-amino-6-(2-hydroxyphenyl)pyridazin-4-yl)oxy)ethyl)benzamido)decanamido)-3,3-dimethylbutanoyl)-4-hydroxy-N-(4-(4-methylthiazol-5-yl)benzyl)pyrrolidine-2-carboxamide] the “BRM HiBit Degradation Maximum (%)” value (HiBiT-BRM) was “C (“C” indicates maximum degradation <50%)”, the DC50 (HiBiT-BRM) was greater than 1000 nM and the DC50 (HiBit-BRG1) was greater than 1000 nM. The Dmax (HiBit-BRG1) was less than 50%.
For Nc1nnc(-c2ccccc2O)cc1OCCc1ccc(CNC(=O)CCCNc2cccc3nnn(C4CCC(=O)NC4=O)c(=O)c23)cc1 (centres unmarked) [Compound 106, N-(4-(2-((3-amino-6-(2-hydroxyphenyl)pyridazin-4-yl)oxy)ethyl)benzyl)-4-((3-(2,6-dioxopiperidin-3-yl)-4-oxo-3,4-dihydrobenzo[d][1,2,3]triazin-5-yl)amino)butanamide], the “BRM HiBit Degradation Maximum (%)” value (HiBiT-BRM) was “C (“C” indicates maximum degradation <50%)”, the DC50 (HiBiT-BRM) was greater than 1000 nM and the DC50 (HiBit-BRG1) was greater than 1000 nM. For the same compound, the Dmax (HiBit-BRG1) was less than 50%.
Nc1nnc(-c2ccccc2O)cc1OCCc1ccc(CNCCCCNc2cccc3c2C(=O)N(C2CCC(=O)NC2=O)C3=O)cc1 (centres unmarked) [Compound 107, 4-[[4-([[4-(2-[[3-amino-6-(2-hydroxyphenyl)pyridazin-4-yl]oxy]ethyl)phenyl]methyl]amino)butyl]amino]-2-(2,6-dioxopiperidin-3-yl)isoindole-1,3-dione] was tested, and the “BRM HiBit Degradation Maximum (%)” value (HiBiT-BRM) was “C (“C” indicates maximum degradation <50%)”, the DC50 (HiBiT-BRM) was greater than 1000 nM and the DC50 (HiBit-BRG1) was greater than 1000 nM. For the same compound, the Dmax (HiBit-BRG1) was greater than 50%.
In the case of Nc1nnc(-c2ccccc2O)cc1OCCc1ccc(CNCCCNc2cccc3c2C(=O)N(C2CCC(=O)NC2=O)C3=O)cc1 (centres unmarked) [Compound 108, 4-[[3-([[4-(2-[[3-amino-6-(2-hydroxyphenyl)pyridazin-4-yl]oxy]ethyl)phenyl]methyl]amino)propyl]amino]-2-(2,6-dioxopiperidin-3-yl)isoindole-1,3-dione, formic acid salt], the “BRM HiBit Degradation Maximum (%)” value (HiBiT-BRM) is reported as “B (“B” indicates maximum degradation ≥50%)”, the DC50 (HiBiT-BRM) is reported as greater than 10 nM and the DC50 (HiBit-BRG1) is reported as greater than 1000 nM. For the same compound, the Dmax (HiBit-BRG1) was greater than 50%.
Nc1nnc(-c2ccccc2O)cc1OCCc1ccc(CNCCNc2cccc3c2C(=O)N(C2CCC(=O)NC2=O)C3=O)cc1 (centres unmarked) [Compound 109, 4-[[2-([[4-(2-[[3-amino-6-(2-hydroxyphenyl)pyridazin-4-yl]oxy]ethyl)phenyl]methyl]amino)ethyl]amino]-2-(2,6-dioxopiperidin-3-yl)isoindole-1,3-dione, formic acid salt] was tested, and the “BRM HiBit Degradation Maximum (%)” value (HiBiT-BRM) was “C (“C” indicates maximum degradation <50%)”, the DC50 (HiBiT-BRM) was greater than 1000 nM and the DC50 (HiBit-BRG1) was greater than 1000 nM. The Dmax (HiBit-BRG1) was less than 50%.
For Nc1nnc(-c2ccccc2O)cc1OCCc1ccc(CNCCN2CCN(c3cccc4c3C(=O)N(C3CCC(=O)NC3=O)C4=O)CC2)cc1 (centres unmarked) [Compound 110, 4-[4-[2-([[4-(2-[[3-amino-6-(2-hydroxyphenyl)pyridazin-4-yl]oxy]ethyl)phenyl]methyl]amino)ethyl]piperazin-1-yl]-2-(2,6-dioxopiperidin-3-yl)isoindole-1,3-dione], the “BRM HiBit Degradation Maximum (%)” value (HiBiT-BRM) was “A (“A” indicates maximum degradation ≥75%)”, the DC50 (HiBiT-BRM) was greater than 10 nM and the DC50 (HiBit-BRG1) was greater than 100 nM. It also gave a Dmax (HiBit-BRG1) greater than 50%.
With Nc1nnc(-c2ccccc2O)cc1OCCc1ccc(CNC(=O)CCNc2cccc3nnn(C4CCC(=O)NC4=O)c(=O)c23)cc1 (centres unmarked) [Compound 111, N-(4-(2-((3-amino-6-(2-hydroxyphenyl)pyridazin-4-yl)oxy)ethyl)benzyl)-3-((3-(2,6-dioxopiperidin-3-yl)-4-oxo-3,4-dihydrobenzo[d][1,2,3]triazin-5-yl)amino)propanamide] the “BRM HiBit Degradation Maximum (%)” value (HiBiT-BRM) was “C (“C” indicates maximum degradation <50%)”, the DC50 (HiBiT-BRM) was greater than 1000 nM and the DC50 (HiBit-BRG1) was greater than 1000 nM. It also gave a Dmax (HiBit-BRG1) of less than 50%.
For Nc1nnc(-c2ccccc2O)cc1OCCc1ccc(CNCCCCCNc2cccc3c2C(=O)N(C2CCC(=O)NC2=O)C3=O)cc1 (centres unmarked) [Compound 112, 4-[[5-([[4-(2-[[3-amino-6-(2-hydroxyphenyl)pyridazin-4-yl]oxy]ethyl)phenyl]methyl]amino)pentyl]amino]-2-(2,6-dioxopiperidin-3-yl)isoindole-1,3-dione], the “BRM HiBit Degradation Maximum (%)” value (HiBiT-BRM) was “B (“B” indicates maximum degradation ≥50%)”, the DC50 (HiBiT-BRM) was greater than 10 nM and the DC50 (HiBit-BRG1) was greater than 1000 nM. The Dmax (HiBit-BRG1) was greater than 50%.
With CN(CCCCCOc1cccc2c1C(=O)N(C1CCC(=O)NC1=O)C2=O)Cc1ccc(CCOc2cc(-c3ccccc3O)nnc2N)cc1 (centres unmarked) [Compound 113, 4-((5-((4-(2-((3-amino-6-(2-hydroxyphenyl)pyridazin-4-yl)oxy)ethyl)benzyl)(methyl)amino)pentyl)oxy)-2-(2,6-dioxopiperidin-3-yl)isoindoline-1,3-dione] the “BRM HiBit Degradation Maximum (%)” value (HiBiT-BRM) was “A (“A” indicates maximum degradation ≥75%)”, the DC50 (HiBiT-BRM) was greater than 10 nM and the DC50 (HiBit-BRG1) was greater than 1000 nM. It also gave a Dmax (HiBit-BRG1) of less than 50%.
